Calls of active or inactive are those of the source.
Legend:
[1] = biological target: T1, Probable nicotinate-nucleotide adenylyltransferase (Staphylococcus aureus (strain N315), UniProt P65502); format: functional, Staphylococcus aureus subsp. aureus N315;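 as to IC50 Mean: confirmatory dose-response retesting of NadD inhibitor hits first found in an ultra-high-throughput screen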
[2] = biological target: T1, Probable nicotinate-nucleotide adenylyltransferase; format: functional, Staphylococcus aureus subsp. aureus N315; conditions: read-out: IC50_Mean
[3] = biological target: Dual specificity tyrosine-phosphorylation-regulated kinase 1A (Rattus norvegicus, UniProt Q63470); format: biochemical, Homo sapiens
[4] = biological target: T2, Low molecular weight phosphotyrosine protein phosphatase (Homo sapiens, UniProt P24666); format: functional; conditions: read-out: IC50_Mean
T2 sequence (P24666 whole entry): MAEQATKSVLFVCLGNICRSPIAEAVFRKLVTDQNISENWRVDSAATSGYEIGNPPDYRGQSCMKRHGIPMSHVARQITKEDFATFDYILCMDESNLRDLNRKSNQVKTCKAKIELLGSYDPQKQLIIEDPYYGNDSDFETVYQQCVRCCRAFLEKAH

[5] = biological target: T2, Low molecular weight phosphotyrosine protein phosphatase; format: functional; conditions: read-out: IC50_Mean; remark: listed apart in the source
[6] = biological target: T3, Tyrosine-protein phosphatase non-receptor type 22 (Homo sapiens, UniProt Q9Y2R2); assay: LYP phosphatase inhibition for selectivity, dose response, selectivity assay for LMPTP inhibitor project, biochemical, fluorescence, LYP catalytic domain (AID 652006); format: functional; conditions: read-out: IC50_Mean
T3 sequence (Q9Y2R2 whole entry): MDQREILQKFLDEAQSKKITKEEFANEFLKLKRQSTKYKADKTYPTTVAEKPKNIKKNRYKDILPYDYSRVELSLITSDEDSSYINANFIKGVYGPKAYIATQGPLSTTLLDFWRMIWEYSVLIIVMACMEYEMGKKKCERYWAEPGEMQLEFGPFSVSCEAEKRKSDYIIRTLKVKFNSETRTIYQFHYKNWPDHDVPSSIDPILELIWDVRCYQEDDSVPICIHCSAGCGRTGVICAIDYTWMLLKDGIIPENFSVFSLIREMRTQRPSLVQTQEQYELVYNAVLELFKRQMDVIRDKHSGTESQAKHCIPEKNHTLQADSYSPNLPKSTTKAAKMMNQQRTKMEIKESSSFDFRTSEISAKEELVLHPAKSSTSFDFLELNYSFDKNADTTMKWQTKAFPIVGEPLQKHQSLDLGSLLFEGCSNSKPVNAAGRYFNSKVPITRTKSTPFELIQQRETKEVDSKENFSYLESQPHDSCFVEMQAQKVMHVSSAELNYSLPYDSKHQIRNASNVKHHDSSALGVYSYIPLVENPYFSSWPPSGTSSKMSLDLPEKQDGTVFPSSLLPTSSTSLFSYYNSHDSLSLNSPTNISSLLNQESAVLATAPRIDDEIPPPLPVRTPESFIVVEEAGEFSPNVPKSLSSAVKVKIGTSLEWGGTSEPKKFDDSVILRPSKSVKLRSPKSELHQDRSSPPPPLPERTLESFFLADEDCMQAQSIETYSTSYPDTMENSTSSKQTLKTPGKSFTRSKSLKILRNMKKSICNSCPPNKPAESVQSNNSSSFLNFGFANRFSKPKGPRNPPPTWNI

Estrogen receptor = biological target: T4, Estrogen receptor (Homo sapiens, UniProt P03372);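 also: potency for inhibiting coactivator peptide recruitment to the receptor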
T4 sequence (P03372 whole entry): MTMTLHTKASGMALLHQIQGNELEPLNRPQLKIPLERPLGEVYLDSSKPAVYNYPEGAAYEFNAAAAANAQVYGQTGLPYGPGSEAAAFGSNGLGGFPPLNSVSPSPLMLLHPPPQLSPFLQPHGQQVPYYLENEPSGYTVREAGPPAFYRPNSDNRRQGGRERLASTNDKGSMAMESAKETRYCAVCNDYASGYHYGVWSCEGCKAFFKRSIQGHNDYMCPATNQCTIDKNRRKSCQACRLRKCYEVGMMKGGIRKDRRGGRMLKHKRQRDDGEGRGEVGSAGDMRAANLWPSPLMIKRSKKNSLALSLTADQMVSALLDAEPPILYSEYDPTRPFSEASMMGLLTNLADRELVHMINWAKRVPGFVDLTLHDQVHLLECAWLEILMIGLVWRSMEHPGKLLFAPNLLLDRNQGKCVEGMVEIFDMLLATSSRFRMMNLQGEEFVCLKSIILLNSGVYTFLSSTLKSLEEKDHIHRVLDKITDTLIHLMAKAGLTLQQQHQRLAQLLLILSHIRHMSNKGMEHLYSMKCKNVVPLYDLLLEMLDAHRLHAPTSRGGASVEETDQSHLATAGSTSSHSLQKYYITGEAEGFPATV

[7] = biological target: Photoreceptor-specific nuclear receptor (Homo sapiens, UniProt Q9Y5X4); format: functional, cell-based;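 also: CHO-S cells with Gal4-NCOR and VP16-NR2E3 two-hybrid luciferase reporter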
Photoreceptor-specific nuclear receptor, sequence (Q9Y5X4 whole entry, the tested form may be a part): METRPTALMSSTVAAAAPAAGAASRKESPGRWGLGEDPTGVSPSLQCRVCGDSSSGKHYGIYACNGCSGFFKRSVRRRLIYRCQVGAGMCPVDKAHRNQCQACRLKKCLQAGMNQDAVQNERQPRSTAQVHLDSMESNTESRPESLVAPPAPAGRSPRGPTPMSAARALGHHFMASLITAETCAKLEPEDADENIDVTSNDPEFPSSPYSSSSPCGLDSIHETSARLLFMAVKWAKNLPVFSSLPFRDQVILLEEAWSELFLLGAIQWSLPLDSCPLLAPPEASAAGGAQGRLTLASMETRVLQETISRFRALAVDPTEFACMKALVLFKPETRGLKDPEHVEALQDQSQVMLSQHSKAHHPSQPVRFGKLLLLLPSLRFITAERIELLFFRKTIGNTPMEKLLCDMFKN

[8] = biological target: ADP-ribosylation factor GTPase-activating protein 1 (Rattus norvegicus, UniProt Q62848); assay: Fluorescence polarization-based biochemical high throughput dose response screening assay to identify inhibitors of ADP-ribosylation factor GTPase activating protein 1 (ARFGAP1).; format: functional
ADP-ribosylation factor GTPase-activating protein 1, sequence (Q62848 whole entry, the tested form may be a part): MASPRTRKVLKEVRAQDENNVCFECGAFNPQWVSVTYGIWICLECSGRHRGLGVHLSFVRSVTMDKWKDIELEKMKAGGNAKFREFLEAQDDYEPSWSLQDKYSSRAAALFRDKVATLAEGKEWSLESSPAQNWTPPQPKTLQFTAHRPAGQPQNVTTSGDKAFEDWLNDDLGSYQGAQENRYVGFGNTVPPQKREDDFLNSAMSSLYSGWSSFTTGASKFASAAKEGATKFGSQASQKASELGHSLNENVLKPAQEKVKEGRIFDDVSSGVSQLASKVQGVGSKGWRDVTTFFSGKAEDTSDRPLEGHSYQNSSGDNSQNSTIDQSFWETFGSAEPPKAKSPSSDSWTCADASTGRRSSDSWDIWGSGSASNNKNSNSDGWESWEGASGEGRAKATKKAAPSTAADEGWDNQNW

[9] = biological target: Arf-GAP with SH3 domain, ANK repeat and PH domain-containing protein 1 (Homo sapiens, UniProt Q9ULH1); format: functional;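 also: biochemical fluorescence polarization dose–response screen measuring inhibition of ASAP1; ASAP1 GAP domain stimulating GTP hydrolysis by truncated human ARF1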
Arf-GAP with SH3 domain, ANK repeat and PH domain-containing protein 1, sequence (Q9ULH1 whole entry, the tested form may be a part): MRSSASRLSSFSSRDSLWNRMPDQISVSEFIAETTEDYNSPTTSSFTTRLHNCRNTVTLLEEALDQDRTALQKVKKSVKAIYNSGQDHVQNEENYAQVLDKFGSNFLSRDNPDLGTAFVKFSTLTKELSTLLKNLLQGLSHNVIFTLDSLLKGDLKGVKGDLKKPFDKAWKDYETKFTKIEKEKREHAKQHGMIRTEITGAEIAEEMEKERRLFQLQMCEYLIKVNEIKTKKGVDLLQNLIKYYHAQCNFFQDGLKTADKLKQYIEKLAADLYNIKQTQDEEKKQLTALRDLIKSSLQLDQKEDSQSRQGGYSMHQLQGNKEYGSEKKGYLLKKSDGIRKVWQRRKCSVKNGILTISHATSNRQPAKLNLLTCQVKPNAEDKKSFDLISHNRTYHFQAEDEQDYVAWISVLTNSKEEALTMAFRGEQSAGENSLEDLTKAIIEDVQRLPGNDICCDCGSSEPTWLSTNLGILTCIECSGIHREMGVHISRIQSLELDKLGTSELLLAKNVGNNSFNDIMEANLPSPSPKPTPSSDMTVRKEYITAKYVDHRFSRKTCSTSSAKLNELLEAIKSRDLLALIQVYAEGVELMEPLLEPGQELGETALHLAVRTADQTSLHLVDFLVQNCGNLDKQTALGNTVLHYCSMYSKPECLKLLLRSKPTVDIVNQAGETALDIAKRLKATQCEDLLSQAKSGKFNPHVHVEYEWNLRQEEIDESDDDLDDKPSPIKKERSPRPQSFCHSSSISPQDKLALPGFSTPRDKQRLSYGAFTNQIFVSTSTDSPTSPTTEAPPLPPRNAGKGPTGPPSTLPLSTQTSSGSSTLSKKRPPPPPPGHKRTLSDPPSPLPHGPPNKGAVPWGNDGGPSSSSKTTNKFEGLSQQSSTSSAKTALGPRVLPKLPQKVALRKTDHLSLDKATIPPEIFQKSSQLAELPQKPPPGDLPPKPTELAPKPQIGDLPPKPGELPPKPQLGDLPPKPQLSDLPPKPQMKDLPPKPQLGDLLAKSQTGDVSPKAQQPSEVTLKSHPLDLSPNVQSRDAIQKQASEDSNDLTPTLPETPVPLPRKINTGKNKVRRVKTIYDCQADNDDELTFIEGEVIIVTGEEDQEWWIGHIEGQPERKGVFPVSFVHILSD

[10] = biological target: T5, Sentrin-specific protease 1 (Homo sapiens, UniProt Q9P0U3); assay: potency of human SENP1 inhibitors, dose response, biochemical, kinetic FRET (AID 651697); format: functional; conditions: read-out: IC50_Mean
T5 sequence (Q9P0U3 whole entry): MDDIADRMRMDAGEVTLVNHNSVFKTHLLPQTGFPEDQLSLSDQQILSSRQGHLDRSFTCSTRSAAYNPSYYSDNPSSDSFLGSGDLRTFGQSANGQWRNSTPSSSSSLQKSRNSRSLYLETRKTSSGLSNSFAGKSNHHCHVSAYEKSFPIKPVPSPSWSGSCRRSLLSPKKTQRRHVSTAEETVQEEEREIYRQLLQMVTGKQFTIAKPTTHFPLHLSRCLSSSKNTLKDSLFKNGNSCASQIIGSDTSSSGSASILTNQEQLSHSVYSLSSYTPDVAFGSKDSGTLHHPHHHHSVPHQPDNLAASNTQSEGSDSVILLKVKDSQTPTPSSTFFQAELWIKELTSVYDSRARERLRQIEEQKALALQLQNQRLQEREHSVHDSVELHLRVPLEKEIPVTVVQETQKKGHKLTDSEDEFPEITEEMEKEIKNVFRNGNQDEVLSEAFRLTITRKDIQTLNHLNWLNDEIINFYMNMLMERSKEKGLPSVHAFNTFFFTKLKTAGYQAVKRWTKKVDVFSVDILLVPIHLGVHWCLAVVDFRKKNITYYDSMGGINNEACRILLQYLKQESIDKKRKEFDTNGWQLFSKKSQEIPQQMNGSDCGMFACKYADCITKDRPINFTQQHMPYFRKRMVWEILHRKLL

[11] = biological target: T5, Sentrin-specific protease 1; assay: Dose response confirmation of small molecule inhibitors of the catalytic domain of the SUMO protease, SENP1 in a FRET assay.; format: functional; conditions: read-out: IC50_Mean
[12] = biological target: Nuclear receptor subfamily 5 group A member 2 (Homo sapiens, UniProt O00482); format: functional, cell-based;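 also: HEK293T cells transfected with LRH-1 and a StAR promoter luciferase reporter; potency for inhibitors that lower LRH-1 driven reporter light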
Nuclear receptor subfamily 5 group A member 2, sequence (O00482 whole entry): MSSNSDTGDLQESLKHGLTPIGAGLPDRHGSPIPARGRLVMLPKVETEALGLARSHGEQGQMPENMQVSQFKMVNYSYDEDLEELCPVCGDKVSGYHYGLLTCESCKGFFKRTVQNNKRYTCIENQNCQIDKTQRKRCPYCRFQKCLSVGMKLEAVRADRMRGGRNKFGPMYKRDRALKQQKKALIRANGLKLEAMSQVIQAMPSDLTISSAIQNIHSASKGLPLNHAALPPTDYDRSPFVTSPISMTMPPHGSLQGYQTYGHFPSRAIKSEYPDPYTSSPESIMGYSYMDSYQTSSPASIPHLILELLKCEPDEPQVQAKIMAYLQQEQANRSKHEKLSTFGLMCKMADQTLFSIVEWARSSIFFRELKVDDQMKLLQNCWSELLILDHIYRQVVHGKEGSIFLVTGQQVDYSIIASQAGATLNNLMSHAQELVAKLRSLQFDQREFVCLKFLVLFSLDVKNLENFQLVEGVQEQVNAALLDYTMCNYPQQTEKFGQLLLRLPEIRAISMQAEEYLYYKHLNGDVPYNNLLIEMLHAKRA

Steroidogenic factor 1 = Steroidogenic factor 1 (Homo sapiens, UniProt Q13285); assay: Counterscreen for inverse agonists of the liver receptor homolog-1 (LRH-1; NR5A2): Luminescence-based cell-based high throughput dose response assay to identify inverse agonists of the Steroidogenic Factor 1 Nuclear Receptor (SF1; NR5A1).; format: functional
Steroidogenic factor 1, sequence (Q13285 whole entry): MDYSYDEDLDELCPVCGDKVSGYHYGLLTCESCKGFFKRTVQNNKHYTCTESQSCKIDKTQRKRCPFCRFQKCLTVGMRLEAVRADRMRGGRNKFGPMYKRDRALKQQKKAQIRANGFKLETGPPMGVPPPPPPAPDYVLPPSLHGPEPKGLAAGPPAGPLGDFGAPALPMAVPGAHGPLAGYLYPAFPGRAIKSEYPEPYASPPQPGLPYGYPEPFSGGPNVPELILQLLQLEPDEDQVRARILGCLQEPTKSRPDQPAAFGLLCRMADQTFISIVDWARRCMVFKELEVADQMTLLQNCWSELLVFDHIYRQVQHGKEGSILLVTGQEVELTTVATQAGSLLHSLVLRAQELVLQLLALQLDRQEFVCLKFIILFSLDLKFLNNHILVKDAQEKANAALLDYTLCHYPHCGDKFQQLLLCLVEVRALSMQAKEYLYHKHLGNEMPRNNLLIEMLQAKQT

[13] = StAR promoter reporter inhibition counter-screen, dose response, counter-screen for LRH-1 inverse agonist project, cell-based, luminescence, luciferase reporter (AID 651969); format: functional
[14] = DNA binding of candidate compounds, dose response, artefact control for RAD54 inhibitor project, biochemical, fluorescence polarization, cherry-pick (AID 651673); format: functional
[15] = biological target: T6, DNA repair and recombination protein RAD54-like (Homo sapiens, UniProt Q92698); assay: inhibitors of human RAD54 branch migration, confirmation, biochemical, fluorescence, cherry-picked samples, dose series (AID 651657); format: functional
T6 sequence (Q92698 whole entry): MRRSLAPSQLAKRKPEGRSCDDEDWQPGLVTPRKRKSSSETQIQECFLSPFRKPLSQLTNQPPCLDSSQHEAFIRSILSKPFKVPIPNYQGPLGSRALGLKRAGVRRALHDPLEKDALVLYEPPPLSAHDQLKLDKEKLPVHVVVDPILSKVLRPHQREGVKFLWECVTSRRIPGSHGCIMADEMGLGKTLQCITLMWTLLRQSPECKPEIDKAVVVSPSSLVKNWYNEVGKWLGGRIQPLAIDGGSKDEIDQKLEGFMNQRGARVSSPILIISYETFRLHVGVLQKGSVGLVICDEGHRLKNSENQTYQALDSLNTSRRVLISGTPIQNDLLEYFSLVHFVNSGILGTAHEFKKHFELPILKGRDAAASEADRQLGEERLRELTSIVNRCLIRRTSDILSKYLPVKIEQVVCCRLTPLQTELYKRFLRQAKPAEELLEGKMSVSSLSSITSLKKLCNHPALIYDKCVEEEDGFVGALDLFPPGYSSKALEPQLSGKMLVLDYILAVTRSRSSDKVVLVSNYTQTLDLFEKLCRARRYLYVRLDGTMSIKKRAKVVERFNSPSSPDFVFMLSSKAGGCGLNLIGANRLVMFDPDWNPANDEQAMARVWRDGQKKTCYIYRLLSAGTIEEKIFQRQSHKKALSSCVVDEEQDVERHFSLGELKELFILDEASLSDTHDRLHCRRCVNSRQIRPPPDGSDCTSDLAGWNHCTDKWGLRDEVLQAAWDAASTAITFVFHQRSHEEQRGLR

[16] = NIH/3T3 fibroblast cytotoxicity, dose response, cytotoxicity control for T. cruzi growth inhibitor project, cell-based, cherry-pick samples, set 2 (AID 651817); format: functional; conditions: NIH3T3
Paired box protein Pax-8 = Paired box protein Pax-8 (Homo sapiens, UniProt Q06710); assay: inhibitors of PAX8-driven TPO luciferase reporter, dose response, RMG-I cells, cherry-pick (AID 687027); format: functional, cell-based;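 also: luciferase reporter driven by Pax8 target thyroperoxidase promoter measured by SteadyGlo luminescence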
Paired box protein Pax-8, sequence (Q06710 whole entry): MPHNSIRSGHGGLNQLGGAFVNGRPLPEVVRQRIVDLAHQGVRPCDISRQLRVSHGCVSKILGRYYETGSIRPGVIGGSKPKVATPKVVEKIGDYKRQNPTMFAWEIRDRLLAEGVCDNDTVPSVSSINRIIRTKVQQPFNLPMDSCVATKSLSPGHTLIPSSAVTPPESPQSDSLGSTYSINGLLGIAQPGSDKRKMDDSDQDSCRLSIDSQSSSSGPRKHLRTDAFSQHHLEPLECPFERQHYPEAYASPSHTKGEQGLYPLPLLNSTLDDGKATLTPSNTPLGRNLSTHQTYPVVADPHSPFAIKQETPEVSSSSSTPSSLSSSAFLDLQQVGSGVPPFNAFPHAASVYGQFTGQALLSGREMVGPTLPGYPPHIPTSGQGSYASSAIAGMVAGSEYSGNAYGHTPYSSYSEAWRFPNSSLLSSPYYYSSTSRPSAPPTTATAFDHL

T1 sequence (P65502 whole entry): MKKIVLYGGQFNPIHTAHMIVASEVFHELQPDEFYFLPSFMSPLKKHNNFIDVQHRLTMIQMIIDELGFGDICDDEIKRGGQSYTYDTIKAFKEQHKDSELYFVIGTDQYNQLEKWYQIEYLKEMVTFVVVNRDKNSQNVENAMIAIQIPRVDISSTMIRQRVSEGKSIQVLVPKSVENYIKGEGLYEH

Compound: CC(C)(C)n1nc2c(c1NC(=O)c1ccc(S(=O)(=O)N3CCCC3)cc1)CSC2
- IC50 [1]: 12.7 µM (active)
- IC50 [2]: 36.1 µM (active)

Compound: Cc1ccccc1Nc1cc(C)c2c(O)cccc2n1
- AC50 [3]: 6.73 µM (active)
- IC50 [4]: 22.7 µM (inactive)
- IC50 [5]: 6.78 µM (active)
- IC50 [6]: 80 µM (inactive)

Compound: O=C(CSc1nnnn1-c1ccccc1)Nc1nsc(-c2ccc(Cl)cc2)n1
- IC50 (Estrogen receptor): 20.8 µM (active)
- IC50 [7]: 0.185 µM (active)
- IC50 [8]: 37.6 µM (inactive)
- IC50 [9]: 23.6 µM (inactive)

Compound: CCN(CC(=O)Nc1ccc(NC(C)=O)cc1)C(=O)CSc1ncnc2sc(C)c(C)c12
- IC50 [10]: 5.42 µM (active)
- IC50 [11]: 4.9 µM (active)

Compound: COc1ccc(CCNC(=O)COC(=O)c2cccn2C)cc1
- IC50 [12]: 35.9 µM (inactive)
- IC50 (Steroidogenic factor 1): 7.32 µM (active)
- IC50 [13]: 35.9 µM (inactive)

Compound: CCN(CC)CCNc1cccc2sc3ccccc3c(=O)c12
- AC50 [14]: 51.4 µM (active)
- IC50 [11]: 46.3 µM (inactive)
- AC50 [15]: 6.59 µM (active)

Compound: Cc1ccc(S(=O)(=O)Nc2ccc3c(c2)CC(=O)N([C@H](C)CO)C[C@H](C)[C@@H](CN(C)Cc2ccc(Cl)c(Cl)c2)O3)cc1
- AC50 [16]: 13 µM (active)
- AC50 (Paired box protein Pax-8): 13.3 µM (active)
